Measured values as given in article PMC7504387, “Antimicrobial and Amyloidogenic Activity of Peptides Synthesized on the Basis of the Ribosomal S1 Protein from Thermus Thermophilus” (International Journal of Molecular Sciences, 2020).
Where a SMILES comes first, the peptide text is derived from it.

System: T. thermophilus cells
Assay: Mass spectrometry proteome analysis of peptide-treated T. thermophilus cells
Assay type: cell-based
Parameters: change in number of ribosomal proteins in comparison with the control: dose or concentration left out as unconfirmed
Details: for Ribosomal Proteins (number detected, 3 or more identified peptides) / All Proteins / total protein detected (number) / detection of ribosomal S1 protein: 24 h; for Ribosomal Proteins (number detected, 3 or more identified peptides): control 51 (with S1), homogenization by freezing-thawing; for All Proteins / total protein detected (number): control 386; for detection of ribosomal S1 protein: control with S1; for Number of proteins, keyword Aminotransferase / Number of proteins, keyword Aromatic amino acid biosynthesis / Number of proteins, keyword DNA replication / Number of proteins, keyword Endonuclease / Number of proteins, keyword Histidine biosynthesis / Number of proteins, keyword Nuclease / Number of proteins, keyword One-carbon metabolism / Number of proteins, keyword Potassium / Number of proteins, keyword Purine salvage / Number of proteins, keyword S-adenosyl-L-methionine / Number of proteins, keyword Serine/threonine-protein kinase / Number of proteins, keyword tRNA processing: 0 μg/ml: 1; for Number of proteins, keyword Isoleucine biosynthesis / Number of proteins, keyword Ribosome biogenesis: 0 μg/ml: 2; for Number of proteins, keyword Aminopeptidase / Number of proteins, keyword Phosphoprotein / Number of proteins, keyword Purine biosynthesis / Number of proteins, keyword Redox-active center: 0 μg/ml: 3; for Number of proteins, keyword Glyoxylate bypass / Number of proteins, keyword Threonine biosynthesis: 0 μg/ml: 4; for Number of proteins, keyword Methionine biosynthesis: 0 μg/ml: 5; for Number of proteins, keyword Allosteric enzyme: 0 μg/ml: 6; for Number of proteins, keyword Serine protease: 0 μg/ml: 7; for Number of proteins, keyword NADP: 0 μg/ml: 8; for Number of proteins, keyword Protease: 0 μg/ml: 16; for Number of proteins, keyword Aminoacyl-tRNA synthetase: 0 μg/ml: 20; for Number of proteins, keyword Magnesium: 0 μg/ml: 23; for Number of proteins, keyword Hydrolase: 0 μg/ml: 26; for Unique proteins (number): control 100
Protocol: T. thermophilus cells were incubated with or without peptides for 24 h. […] The cell extract was not allowed to heat above +10 °C. Cell debris and aggregates were collected by sedimentation using centrifugation in a 221.23 V20 rotor of a Z 36 HK centrifuge (Hermle Labortechnik GmbH, Wehingen, Germany) at 20,000× g 20 min at +4 °C. The supernatant was dried using a vacuum Concentrator 5301 (Eppendorf, Hamburg, Germany). The prepared lysate was dissolved in 100 μL of 9M urea to denature the total protein. Then, 20 μL of cell lysates was separated by electrophoretic in 12% SDS-PAGE. Protein fractions were divided on three equal parts, that every part was chop and treated with trypsin protease. Mass spectrometry analysis of every part was carried out independently. To purify the samples treated with trypsin, filtration was carried out through ZipTips (MilliporeSigma, Burlington, MA, USA). Protein hydrolyzates were concentrated on a pre-column Acclaim PepMap 100 (C18, 3 μm particle size, 100 Å pore size, 300 μm inner diameter × 5 mm length) and separated on an analytical column Acclaim PepMap RSLC (2 μm particle size, 100 Å pore size, 75 μm inner diameter × 150 mm length) (Thermo Scientific, Waltham, MA, USA) using nanoflow liquid chromatograph EASY nLC 1000 (Thermo Scientific, Waltham, MA, USA). A high-performance mass spectrometer an Orbitrap Elite (Thermo Scientific, Dreieich, Germany) was used as a detector. Panoramic spectra were recorded in the mass range m/z 300–2000 at resolution 60,000; ion fragmentation was performed in an HCD cell; the fragmentation spectra were recorded at resolution 15,000. Preliminary selection of identified peptides with a molecular mass (MM) >600 Da was carried out according to the evaluation criteria of the PEAKS Studio 7.5 program (Bioinformatics Solution Inc., Waterloo, ON N2L 6J2, Canada). The peptides with the threshold function value T = −10·logP > 15 were considered significant, where P is the probability that false identification will reach the same or better match score. The T value of >15 corresponds to the p criterion <0.03 [29]. The received fragmentation spectra were analyzed by web-server Identipy. Identification of proteins in the mass spectra of the total protein was carried out using the database of the reference T. thermophilus proteome (Uniprot, No. UP000217909). Proteome data every part was summarized. Subsequent analysis was conducted by using the statistics software R with packages UniProt.ws, tidyverse, ggplot2, splitstackshape, reshape, readr, RVenn, UpSetR (https://rdrr.io/bioc/UniProt.ws/; https://CRAN.R-project.org/package=readr; https://CRAN.R-project.org/package=splitstackshape; https://CRAN.R-project.org/package=readr; https://CRAN.R-project.org/package=RVen).
Annotation of the certain proteins by keywords of the Uniprot database allows us to evaluate the changes in protein composition in 10 categories: biological process, cellular component, variety of coding sequences, molecular function, and others. The number of keywords corresponds to the number of annotated proteins.

CC[C@H](C)[C@H](NC(=O)[C@H](CCC(=O)O)NC(=O)[C@@H](NC(=O)[C@H](Cc1ccccc1)NC(=O)[C@@H](NC(=O)CNC(=O)[C@H](Cc1ccccc1)NC(=O)[C@H](CC(=O)O)NC(=O)[C@@H](NC(=O)[C@@H](NC(=O)CNC(=O)CN(C)C(=O)CNC(=O)CNC(=O)[C@H](CCCNC(=N)N)NC(=O)[C@H](CCCNC(=N)N)NC(=O)[C@H](CCCNC(=N)N)NC(=O)[C@H](CCC(N)=O)NC(=O)[C@H](CCCNC(=N)N)NC(=O)[C@H](CCCNC(=N)N)NC(=O)[C@H](CCCCN)NC(=O)[C@H](CCCCN)NC(=O)[C@@H](N)CCCNC(=N)N)C(C)C)[C@@H](C)O)C(C)C)C(C)C)C(=O)O [R23I] (HELM PEPTIDE1{R.K.K.R.R.Q.R.R.R.G.G.[Sar].G.V.T.D.F.G.V.F.V.E.I}$$$$V2.0; N-terminus and C-terminus assumed)
change in number of ribosomal proteins in comparison with the control (R23I): more than two-fold decrease | less numbers of proteins detected relative to the control (R23I 20 μg/mL): 40% | Common proteins for cells in control and treated cells (number) (R23I 20 μg/ml): 20 | Ribosomal Proteins (number detected, 3 or more identified peptides) (R23I 20 μg/ml): 42 | All Proteins / total protein detected (number) (R23I 20 μg/ml): 232 | detection of ribosomal S1 protein (R23I 20 μg/ml): 42 (without S1) | Number of proteins, keyword Aminotransferase (R23I 20 μg/ml): 0 | Number of proteins, keyword Aromatic amino acid biosynthesis (R23I 20 μg/ml): 0 | Number of proteins, keyword DNA replication (R23I 20 μg/ml): 0 | Number of proteins, keyword Endonuclease (R23I 20 μg/ml): 0 | Number of proteins, keyword Histidine biosynthesis (R23I 20 μg/ml): 0 | Number of proteins, keyword Nuclease (R23I 20 μg/ml): 0 | Number of proteins, keyword One-carbon metabolism (R23I 20 μg/ml): 0 | Number of proteins, keyword Potassium (R23I 20 μg/ml): 0 | Number of proteins, keyword Purine salvage (R23I 20 μg/ml): 0 | Number of proteins, keyword S-adenosyl-L-methionine (R23I 20 μg/ml): 0 | Number of proteins, keyword Serine/threonine-protein kinase (R23I 20 μg/ml): 0 | Number of proteins, keyword tRNA processing (R23I 20 μg/ml): 0 | Number of proteins, keyword Isoleucine biosynthesis (R23I 20 μg/ml): 0 | Number of proteins, keyword Ribosome biogenesis (R23I 20 μg/ml): 0 | Number of proteins, keyword Aminopeptidase (R23I 20 μg/ml): 0 | Number of proteins, keyword Phosphoprotein (R23I 20 μg/ml): 1 | Number of proteins, keyword Purine biosynthesis (R23I 20 μg/ml): 1 | Number of proteins, keyword Redox-active center (R23I 20 μg/ml): 0 | Number of proteins, keyword Glyoxylate bypass (R23I 20 μg/ml): 1 | Number of proteins, keyword Threonine biosynthesis (R23I 20 μg/ml): 1 | Number of proteins, keyword Methionine biosynthesis (R23I 20 μg/ml): 1 | Number of proteins, keyword Allosteric enzyme (R23I 20 μg/ml): 1 | Number of proteins, keyword Serine protease (R23I 20 μg/ml): 1 | Number of proteins, keyword NADP (R23I 20 μg/ml): 2 | Number of proteins, keyword Protease (R23I 20 μg/ml): 5 | Number of proteins, keyword Aminoacyl-tRNA synthetase (R23I 20 μg/ml): 7 | Number of proteins, keyword Magnesium (R23I 20 μg/ml): 9 | Number of proteins, keyword Hydrolase (R23I 20 μg/ml): 9 | Unique proteins (number) (R23I 20 μg/ml): 11 | less numbers of proteins detected relative to the control (R23I 50 μg/mL): 48% | ratio of proteins from treated cells to proteins from intact cells (R23I 50 μg/mL, 201 to 386 proteins): 0.52 | Common proteins for cells in control and treated cells (number) (R23I 50 μg/ml): 9 | Ribosomal Proteins (number detected, 3 or more identified peptides) (R23I 50 μg/ml): 39 | All Proteins / total protein detected (number) (R23I 50 μg/ml): 201 | detection of ribosomal S1 protein (R23I 50 μg/ml): 39 (without S1) | Number of proteins, keyword Aminotransferase (R23I 50 μg/ml): 0 | Number of proteins, keyword Aromatic amino acid biosynthesis (R23I 50 μg/ml): 0 | Number of proteins, keyword DNA replication (R23I 50 μg/ml): 0 | Number of proteins, keyword Endonuclease (R23I 50 μg/ml): 0 | Number of proteins, keyword Histidine biosynthesis (R23I 50 μg/ml): 0 | Number of proteins, keyword Nuclease (R23I 50 μg/ml): 0 | Number of proteins, keyword One-carbon metabolism (R23I 50 μg/ml): 0 | Number of proteins, keyword Potassium (R23I 50 μg/ml): 0 | Number of proteins, keyword Purine salvage (R23I 50 μg/ml): 0 | Number of proteins, keyword S-adenosyl-L-methionine (R23I 50 μg/ml): 0 | Number of proteins, keyword Serine/threonine-protein kinase (R23I 50 μg/ml): 0 | Number of proteins, keyword tRNA processing (R23I 50 μg/ml): 1 | Number of proteins, keyword Isoleucine biosynthesis (R23I 50 μg/ml): 0 | Number of proteins, keyword Ribosome biogenesis (R23I 50 μg/ml): 0 | Number of proteins, keyword Aminopeptidase (R23I 50 μg/ml): 0 | Number of proteins, keyword Phosphoprotein (R23I 50 μg/ml): 2 | Number of proteins, keyword Purine biosynthesis (R23I 50 μg/ml): 1 | Number of proteins, keyword Redox-active center (R23I 50 μg/ml): 0 | Number of proteins, keyword Glyoxylate bypass (R23I 50 μg/ml): 1 | Number of proteins, keyword Threonine biosynthesis (R23I 50 μg/ml): 1 | Number of proteins, keyword Methionine biosynthesis (R23I 50 μg/ml): 1 | Number of proteins, keyword Allosteric enzyme (R23I 50 μg/ml): 1 | Number of proteins, keyword Serine protease (R23I 50 μg/ml): 2 | Number of proteins, keyword NADP (R23I 50 μg/ml): 2 | Number of proteins, keyword Protease (R23I 50 μg/ml): 5 | Number of proteins, keyword Aminoacyl-tRNA synthetase (R23I 50 μg/ml): 7 | Number of proteins, keyword Magnesium (R23I 50 μg/ml): 9 | Number of proteins, keyword Hydrolase (R23I 50 μg/ml): 8 | Unique proteins (number) (R23I 50 μg/ml): 2 | Common proteins for cells in control and treated cells (number) (R23I 100 μg/ml): 69 | Ribosomal Proteins (number detected, 3 or more identified peptides) (R23I 100 μg/ml): 23 | All Proteins / total protein detected (number) (R23I 100 μg/ml): 395 | detection of ribosomal S1 protein (R23I 100 μg/ml): 23 (with S1) | Number of proteins, keyword Aminotransferase (R23I 100 μg/ml): 1 | Number of proteins, keyword Aromatic amino acid biosynthesis (R23I 100 μg/ml): 1 | Number of proteins, keyword DNA replication (R23I 100 μg/ml): 2 | Number of proteins, keyword Endonuclease (R23I 100 μg/ml): 2 | Number of proteins, keyword Histidine biosynthesis (R23I 100 μg/ml): 1 | Number of proteins, keyword Nuclease (R23I 100 μg/ml): 2 | Number of proteins, keyword One-carbon metabolism (R23I 100 μg/ml): 1 | Number of proteins, keyword Potassium (R23I 100 μg/ml): 1 | Number of proteins, keyword Purine salvage (R23I 100 μg/ml): 0 | Number of proteins, keyword S-adenosyl-L-methionine (R23I 100 μg/ml): 1 | Number of proteins, keyword Serine/threonine-protein kinase (R23I 100 μg/ml): 0 | Number of proteins, keyword tRNA processing (R23I 100 μg/ml): 1 | Number of proteins, keyword Isoleucine biosynthesis (R23I 100 μg/ml): 1 | Number of proteins, keyword Ribosome biogenesis (R23I 100 μg/ml): 0 | Number of proteins, keyword Aminopeptidase (R23I 100 μg/ml): 0 | Number of proteins, keyword Phosphoprotein (R23I 100 μg/ml): 5 | Number of proteins, keyword Purine biosynthesis (R23I 100 μg/ml): 3 | Number of proteins, keyword Redox-active center (R23I 100 μg/ml): 3 | Number of proteins, keyword Glyoxylate bypass (R23I 100 μg/ml): 4 | Number of proteins, keyword Threonine biosynthesis (R23I 100 μg/ml): 2 | Number of proteins, keyword Methionine biosynthesis (R23I 100 μg/ml): 3 | Number of proteins, keyword Allosteric enzyme (R23I 100 μg/ml): 4 | Number of proteins, keyword Serine protease (R23I 100 μg/ml): 3 | Number of proteins, keyword NADP (R23I 100 μg/ml): 6 | Number of proteins, keyword Protease (R23I 100 μg/ml): 11 | Number of proteins, keyword Aminoacyl-tRNA synthetase (R23I 100 μg/ml): 19 | Number of proteins, keyword Magnesium (R23I 100 μg/ml): 33 | Number of proteins, keyword Hydrolase (R23I 100 μg/ml): 31 | Unique proteins (number) (R23I 100 μg/ml): 176
